Like-named read-outs stand apart in the source and are kept apart here.
How the values were obtained:
Format in all cases: binding
[1] = target: T1, HeLa cell extract proteins (Homo sapiens, UniProt P14324)
T1 construct: endogenous in cells; host or cells: HeLa cell extract
T1 sequence (P14324 1-419): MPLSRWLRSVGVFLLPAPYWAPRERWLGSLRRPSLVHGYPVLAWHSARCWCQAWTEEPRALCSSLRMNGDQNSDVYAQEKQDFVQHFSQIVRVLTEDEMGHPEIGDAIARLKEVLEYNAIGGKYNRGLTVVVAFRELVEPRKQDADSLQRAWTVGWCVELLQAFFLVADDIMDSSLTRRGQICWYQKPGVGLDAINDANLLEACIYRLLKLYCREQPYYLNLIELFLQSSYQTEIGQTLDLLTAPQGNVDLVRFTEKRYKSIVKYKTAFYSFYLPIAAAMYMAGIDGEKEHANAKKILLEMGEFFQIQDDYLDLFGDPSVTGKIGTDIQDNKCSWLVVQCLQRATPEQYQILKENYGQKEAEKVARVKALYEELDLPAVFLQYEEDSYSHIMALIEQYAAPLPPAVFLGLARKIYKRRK

[2] = target: T2, HeLa cell extract proteins (Homo sapiens, UniProt P26599)
T2 construct: endogenous in cells; host or cells: HeLa cell extract

[3] = target: T3, HeLa cell extract proteins (Homo sapiens, UniProt O60701)
T3 construct: endogenous in cells; host or cells: HeLa cell extract
T3 sequence (O60701 1-494): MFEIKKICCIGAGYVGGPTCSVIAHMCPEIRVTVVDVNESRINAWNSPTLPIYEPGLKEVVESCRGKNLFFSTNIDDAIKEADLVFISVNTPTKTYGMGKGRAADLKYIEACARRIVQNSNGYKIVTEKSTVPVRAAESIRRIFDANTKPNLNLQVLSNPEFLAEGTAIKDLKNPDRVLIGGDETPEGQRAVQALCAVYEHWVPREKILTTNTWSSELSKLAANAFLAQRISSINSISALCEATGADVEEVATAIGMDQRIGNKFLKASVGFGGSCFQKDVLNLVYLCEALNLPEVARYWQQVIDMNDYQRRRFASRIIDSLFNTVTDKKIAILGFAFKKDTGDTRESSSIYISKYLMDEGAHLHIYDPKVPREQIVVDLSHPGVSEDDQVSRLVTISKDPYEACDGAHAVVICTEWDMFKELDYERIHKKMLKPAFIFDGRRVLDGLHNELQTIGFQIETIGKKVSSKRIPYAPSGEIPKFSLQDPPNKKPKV

[4] = target: T4, HeLa cell extract proteins (Homo sapiens, UniProt P04083)
T4 construct: endogenous in cells; host or cells: HeLa cell extract
T4 sequence (P04083 1-346): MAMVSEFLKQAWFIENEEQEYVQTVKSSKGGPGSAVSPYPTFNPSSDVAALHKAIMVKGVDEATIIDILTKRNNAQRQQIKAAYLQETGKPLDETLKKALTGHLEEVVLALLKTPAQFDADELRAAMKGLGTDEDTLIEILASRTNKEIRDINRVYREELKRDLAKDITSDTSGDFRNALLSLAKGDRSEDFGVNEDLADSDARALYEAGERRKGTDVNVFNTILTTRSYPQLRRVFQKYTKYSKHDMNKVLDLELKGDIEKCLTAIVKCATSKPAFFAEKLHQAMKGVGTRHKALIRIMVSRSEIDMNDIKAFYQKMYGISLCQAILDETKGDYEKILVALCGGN

[5] = target: T5, HeLa cell extract proteins (Homo sapiens, UniProt P17844)
T5 construct: endogenous in cells; host or cells: HeLa cell extract

[6] = target: T6, HeLa cell extract proteins (Homo sapiens, UniProt O75964)
T6 construct: endogenous in cells; host or cells: HeLa cell extract
T6 sequence (O75964 1-103): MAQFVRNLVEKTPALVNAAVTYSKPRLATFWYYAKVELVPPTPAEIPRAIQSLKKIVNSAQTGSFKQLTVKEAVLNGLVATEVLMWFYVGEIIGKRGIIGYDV

[7] = target: T7, HeLa cell extract proteins (Homo sapiens, UniProt O43809)
T7 construct: endogenous in cells; host or cells: HeLa cell extract

[8] = target: T8, HeLa cell extract proteins (Homo sapiens, UniProt Q14566)
T8 construct: endogenous in cells; host or cells: HeLa cell extract
T8 sequence (Q14566 1-821): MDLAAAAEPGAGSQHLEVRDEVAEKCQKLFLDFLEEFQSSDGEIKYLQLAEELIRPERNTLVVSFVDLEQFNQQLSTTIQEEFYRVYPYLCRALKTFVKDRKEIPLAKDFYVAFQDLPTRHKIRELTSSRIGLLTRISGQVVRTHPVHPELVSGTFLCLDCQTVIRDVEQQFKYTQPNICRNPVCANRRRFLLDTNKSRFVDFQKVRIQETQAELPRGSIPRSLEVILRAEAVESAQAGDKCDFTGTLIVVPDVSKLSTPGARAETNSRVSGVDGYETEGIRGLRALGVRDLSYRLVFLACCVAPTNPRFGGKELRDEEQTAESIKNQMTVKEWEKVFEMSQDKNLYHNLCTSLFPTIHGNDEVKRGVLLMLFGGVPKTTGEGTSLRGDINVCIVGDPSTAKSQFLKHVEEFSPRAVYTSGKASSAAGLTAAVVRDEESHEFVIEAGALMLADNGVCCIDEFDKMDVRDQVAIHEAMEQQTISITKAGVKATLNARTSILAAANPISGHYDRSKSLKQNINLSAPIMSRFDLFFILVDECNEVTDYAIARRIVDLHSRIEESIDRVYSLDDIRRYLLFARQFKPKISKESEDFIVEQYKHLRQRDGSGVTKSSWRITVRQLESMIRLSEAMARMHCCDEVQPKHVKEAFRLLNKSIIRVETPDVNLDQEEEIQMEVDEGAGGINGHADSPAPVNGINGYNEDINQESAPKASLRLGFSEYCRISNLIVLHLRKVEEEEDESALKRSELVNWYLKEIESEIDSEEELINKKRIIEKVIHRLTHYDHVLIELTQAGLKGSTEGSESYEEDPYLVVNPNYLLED

[9] = target: T9, HeLa cell extract proteins (Homo sapiens, UniProt P31689)
T9 construct: endogenous in cells; host or cells: HeLa cell extract

[10] = target: T10, HeLa cell extract proteins (Homo sapiens, UniProt Q16831)
T10 construct: endogenous in cells; host or cells: HeLa cell extract

[11] = HeLa, protein DDX5 (PROBABLE ATP-DEPENDENT RNA HELICASE DDX5)
[12] = HeLa, protein UPP1 (ISOFORM 1 OF URIDINE PHOSPHORYLASE 1)

T2 sequence (P26599 whole entry): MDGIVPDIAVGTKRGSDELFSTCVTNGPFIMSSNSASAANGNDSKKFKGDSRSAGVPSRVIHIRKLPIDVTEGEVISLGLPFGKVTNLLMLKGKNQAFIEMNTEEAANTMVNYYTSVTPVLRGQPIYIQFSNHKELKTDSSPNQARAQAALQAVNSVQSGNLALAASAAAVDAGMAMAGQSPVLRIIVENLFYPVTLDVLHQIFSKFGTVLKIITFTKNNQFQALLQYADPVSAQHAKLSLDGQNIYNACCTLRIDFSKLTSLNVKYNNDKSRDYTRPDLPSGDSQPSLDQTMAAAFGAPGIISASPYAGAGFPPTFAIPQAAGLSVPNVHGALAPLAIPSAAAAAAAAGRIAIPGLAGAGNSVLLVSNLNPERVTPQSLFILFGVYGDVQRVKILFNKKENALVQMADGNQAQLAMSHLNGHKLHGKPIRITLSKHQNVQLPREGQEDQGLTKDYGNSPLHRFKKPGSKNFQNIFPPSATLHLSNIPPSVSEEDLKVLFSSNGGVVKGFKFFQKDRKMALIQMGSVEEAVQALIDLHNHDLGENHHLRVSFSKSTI
T7 sequence (O43809 whole entry): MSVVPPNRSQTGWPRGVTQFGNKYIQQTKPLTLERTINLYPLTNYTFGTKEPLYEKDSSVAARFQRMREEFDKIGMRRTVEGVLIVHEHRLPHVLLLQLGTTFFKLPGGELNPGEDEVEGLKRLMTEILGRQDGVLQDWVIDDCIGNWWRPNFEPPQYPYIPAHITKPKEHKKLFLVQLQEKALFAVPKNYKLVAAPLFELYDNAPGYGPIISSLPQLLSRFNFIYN
T10 sequence (Q16831 whole entry): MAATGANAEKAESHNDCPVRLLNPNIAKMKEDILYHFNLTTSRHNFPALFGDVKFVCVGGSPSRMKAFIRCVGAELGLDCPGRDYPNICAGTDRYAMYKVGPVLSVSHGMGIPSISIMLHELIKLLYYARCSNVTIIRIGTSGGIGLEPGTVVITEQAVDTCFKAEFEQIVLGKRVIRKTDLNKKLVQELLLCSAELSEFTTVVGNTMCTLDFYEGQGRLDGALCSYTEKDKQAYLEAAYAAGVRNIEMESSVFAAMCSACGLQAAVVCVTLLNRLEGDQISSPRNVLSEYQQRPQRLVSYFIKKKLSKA
T5 sequence (P17844 whole entry): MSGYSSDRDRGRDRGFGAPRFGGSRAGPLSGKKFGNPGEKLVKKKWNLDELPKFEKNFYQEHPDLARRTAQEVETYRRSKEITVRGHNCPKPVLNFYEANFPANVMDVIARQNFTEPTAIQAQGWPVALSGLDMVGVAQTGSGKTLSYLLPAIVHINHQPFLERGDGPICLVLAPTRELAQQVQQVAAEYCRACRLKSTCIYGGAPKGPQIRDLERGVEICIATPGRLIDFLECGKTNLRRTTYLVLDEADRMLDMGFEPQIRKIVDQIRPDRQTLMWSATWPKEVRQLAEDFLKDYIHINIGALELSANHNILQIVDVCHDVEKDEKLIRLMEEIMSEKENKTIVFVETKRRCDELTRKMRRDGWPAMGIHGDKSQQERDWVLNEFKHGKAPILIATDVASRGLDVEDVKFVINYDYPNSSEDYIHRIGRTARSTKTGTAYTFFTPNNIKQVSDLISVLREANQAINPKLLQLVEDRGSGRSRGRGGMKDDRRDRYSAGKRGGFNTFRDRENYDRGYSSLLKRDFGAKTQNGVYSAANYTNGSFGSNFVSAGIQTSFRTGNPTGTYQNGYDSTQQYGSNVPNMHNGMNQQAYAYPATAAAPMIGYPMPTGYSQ
T9 sequence (P31689 whole entry): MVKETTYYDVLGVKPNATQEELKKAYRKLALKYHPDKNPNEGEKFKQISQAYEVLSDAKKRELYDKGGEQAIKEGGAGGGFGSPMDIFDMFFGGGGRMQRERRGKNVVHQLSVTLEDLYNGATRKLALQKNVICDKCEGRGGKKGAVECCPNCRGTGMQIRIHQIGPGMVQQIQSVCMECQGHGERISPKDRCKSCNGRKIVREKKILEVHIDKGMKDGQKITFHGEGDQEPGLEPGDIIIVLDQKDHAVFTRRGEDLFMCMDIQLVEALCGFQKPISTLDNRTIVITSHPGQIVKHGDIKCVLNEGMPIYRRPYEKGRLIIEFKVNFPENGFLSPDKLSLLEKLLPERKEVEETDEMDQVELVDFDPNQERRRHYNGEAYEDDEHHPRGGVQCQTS

| Compound | fold changes relative to vehicle control ([1]; protein FDPS, HeLa) | fold changes relative to vehicle control ([2]; protein PTBP1, HeLa) | fold changes relative to vehicle control ([3]; protein UGDH, HeLa) | fold changes relative to vehicle control ([4]; protein ANXA1, HeLa) | fold changes relative to vehicle control ([5]; HeLa, protein DDX5) | fold changes relative to vehicle control ([6]; protein ATP5L, HeLa) | fold changes relative to vehicle control ([7]; protein NUDT21, HeLa) | fold changes relative to vehicle control ([8]; protein MCM6, HeLa) | fold changes relative to vehicle control ([9]; HeLa, protein DNAJA1) | fold changes relative to vehicle control ([10]; HeLa, protein UPP1) | fold changes relative to vehicle control ([1]; HeLa, captured protein FDPS) | fold changes relative to vehicle control ([2]; HeLa, protein PTBP1) | fold changes relative to vehicle control ([3]; HeLa, protein UGDH) | fold changes relative to vehicle control [5, 11] | fold changes relative to vehicle control ([6]; HeLa, protein ATP5L) | fold changes relative to vehicle control ([8]; HeLa, protein MCM6) | fold changes relative to vehicle control [10, 12] | other results |
| --- | --- | --- | --- | --- | --- | --- | --- | --- | --- | --- | --- | --- | --- | --- | --- | --- | --- | --- |
| Nc1nc2cccc(-c3ccccc3)c2n1Cc1ccc(Cl)c(Cl)c1 [compound 3] | 0.87 | 1.08 | 0.78 | 0.86 | 0.9 | 0.98 | 0.99 | 0.91 | 0.92 | 1.05 |  |  |  |  |  |  |  |  |
| NCCOCCOCC(=O)Nc1nc2ncc(CNc3ccc(C(=O)NC(CCC(=O)O)C(=O)O)cc3)nc2c(=O)[nH]1 (stereo not shown) [compound 6] |  |  |  | 1.24 |  |  | 1 |  | 1.06 |  | 1.29 | 1.03 | 1.41 | 1.15 | 0.98 | 1.3 | 0.44 |  |
| Nc1nc2[nH]cc(CCc3ccc(C(=O)N[C@@H](CCC(=O)O)C(=O)O)cc3)c2c(=O)[nH]1 [PTX, pemetrexed] |  |  |  |  |  |  |  |  |  |  |  |  |  |  |  |  |  | fold changes relative to vehicle control [1]: 1.08; fold changes relative to vehicle control [2]: 0.95; fold changes relative to vehicle control [3]: 1.21; fold changes relative to vehicle control [4]: 0.98; fold changes relative to vehicle control [5]: 0.82; fold changes relative to vehicle control [6]: 1.32; fold changes relative to vehicle control [7]: 0.97; fold changes relative to vehicle control [8]: 1.05; fold changes relative to vehicle control [9]: 0.93; fold changes relative to vehicle control [10]: 1.11 |
| Nc1nc2c(c(=O)[nH]1)N(C=O)C(CNc1ccc(C(=O)N[C@@H](CCC(=O)O)C(=O)O)cc1)CN2 (stereo partly shown) [LEU, leucovorin] |  |  |  | 0.81 |  |  | 1.11 |  | 0.99 |  | 1.05 | 0.98 | 1.16 | 0.88 | 1.07 | 1.28 | 1.01 |  |
| CCCCCCOc1ccc(Cc2cnc(N)nc2N)cc1 [compound 1] | 1.17 | 0.97 | 1.13 | 1.21 | 0.92 | 1.2 | 1.16 | 1.15 | 1.07 | 0.88 |  |  |  |  |  |  |  |  |
| NCCCNc1ccc(C(=O)NC(CCC(=O)O)C(=O)O)cc1 (stereo not shown) [compound 7] |  |  |  | 0.87 |  |  | 0.98 |  | 1.15 |  | 0.97 | 1.05 | 0.9 | 0.93 | 0.97 | 1.06 | 0.96 |  |
| CCCCCCOc1cccc(Cc2cnc(N)nc2N)c1 [compound 2] | 2.08 | 1.55 | 1.76 | 1.86 | 1.12 | 0.95 | 1.28 | 2.32 | 1.11 | 1.16 |  |  |  |  |  |  |  |  |

— publication PMC6199744, “Development of Chemical Proteomics for the Folateome and Analysis of the Kinetoplastid Folateome” (ACS Infectious Diseases, 2018)
